Measured values from US6933320B2, “Combination comprising combretastatin and anticancer agents” (priority 2001, dated 2005).
Values joined by “and” are separate entries in the source; they are usually repeats but may differ in a detail not shown here. Identical values can stand only once. Like-named read-outs stand apart in the source and are kept apart here.

Legend:
C51 = test: In vivo evaluation on subcutaneously grafted solid tumor C51
Experimental: A product is considered to be active if the log10 cell kill is greater than or equal to 0.7. A product is considered to be very active if the log10 cell kill is greater than 2.8.
(§1) The efficacy of the combinations on solid tumors were determined experimentally in the following manner:
The animals subjected to the experiment, generally mice, were subcutaneously grafted bilaterally with 30 to 60 mg of a tumor fragment on day 0. The animals bearing tumors were mixed before being subjected to the various treatments and controls. In the case of treatment of advanced tumors, tumors were allowed to develop to the desired size, and animals having insufficiently developed tumors were eliminated. The selected animals were distributed at random to undergo the treatments and controls. […] The different animal groups were weighed 3 or 4 times a week until the maximum weight loss was attained, and the groups were then weighed at least once a week until the end of the trial.
(§2) The tumors were measured 2 or 3 times a week until the tumor reached approximately 2 g, or until the animal died if this occurred before the tumor reached 2 g. The animals were autopsied when sacrificed.
(§3) The antitumor activity was determined in accordance with different parameters which were recorded such as dose (mg/kg), mode of administration, time of administration, cytotoxicity, toxicity and log cell kill.
The agents were administered intravenously unless otherwise specified.

MA13/C = format: in vivo
Experimental: This efficacy may be quantified, for example by the log10 cell kill, which is determined by the following formula: log10 cells killed=T-C(days)/3.32×Td in which T-C represents the time taken for the cells to grow, which is the mean time in days for the tumors of the treated group (T) to reach a predetermined value (1 g for example) and the tumors of the control group (C) to reach the same value, and Td represents the time in days needed for the volume of the tumors in the control group to double. (T. H. Corbett et al., Cancer, 40, 2660.2680 (1977); F. M. Schabel et al., Cancer Drug Development, Part B, Methods in Cancer Research, 17, 3-51, New York, Academic Press Inc. (1979)). A product is considered to be active if the log10 cell kill is greater than or equal to 0.7. A product is considered to be very active if the log10 cell kill is greater than 2.8.
as §1
The animals subjected to the experiment, generally mice, were subcutaneously grafted bilaterally with 30 to 60 mg of a tumor fragment on day 0. The animals bearing tumors were mixed before being subjected to the various treatments and controls. In the case of treatment of advanced tumors, tumors were allowed to develop to the desired size, and animals having insufficiently developed tumors were eliminated. The selected animals were distributed at random to undergo the treatments and controls. Animals not bearing tumors were also subjected to the same treatments as the tumor-bearing animals in order to be able to dissociate the toxic effect from the specific effect on the tumor. Chemotherapy generally began from 3 to 22 days after grafting, depending on the type of tumor, and the animals were observed every day. The different animal groups were weighed 3 or 4 times a week until the maximum weight loss was attained, and the groups were then weighed at least once a week until the end of the trial.
as §2, §3
In this and the following examples, RPR 258062A corresponds to the hydrochloride salt of compound IIa. The agents were administered intravenously unless otherwise specified.

[1] = Solubility in water (statement); format: physicochemical; settings: statement in words, no method given
[2] = single agent at HNTD, i.v., schedule days 12, 16
[3] = sequential combination CPT-11 oral 400 mg/kg days 13-16 + RPR 258062A 36 mg/kg day 17
[4] = single agent at HNTD, RPR 258062A i.v. days 13-17 (2x/d), CPT-11 oral days 14-17
[5] = MA13/C tumor, single agent at HNTD, i.v., docetaxel days 17, 24 (* evaluated on mice that developed tumor), RPR 258062A days 17, 24 (2x/d)
[6] = MA13/C tumor, single agent at HNTD, i.v., docetaxel days 17, 24, RPR 258062A days 17, 24 (2x/d)
[7] = MA13/C tumor, single agent at HNTD, i.v., schedule days 15, 22 (doxorubicin study)
[8] = sequential combination RPR 258062A 58 mg/kg day 14 + CDDP 10 mg/kg days 15, 19, i.v.
[9] = simultaneous combination RPR 258062A 1st 116 mg/kg days 12, 16 + CDDP 10 mg/kg days 12, 16, i.v.
[10] = MA13/C tumor, sequential combination RPR 258062A 1st 75 mg/kg day 14 + vinorelbine 2nd 32 mg/kg days 15, 25, i.v.
[11] = MA13/C tumor, single agent at HNTD, i.v., schedule days 15, 25 (vinorelbine study)

## N.N.[Cl][Pt][Cl] [CDDP, cisplatinum, reference compound]
C51; [2]
  LcK (log cell kill): 1.9
  RR CR (complete response): 0/6
  RR PR (partial response): 5/6
  T-C (tumor growth delay): 16.5 days
  TFS (tumor free survivors): 0/6

## CCc1c2c(nc3ccc(OC(=O)N4CCC(N5CCCCC5)CC4)cc13)-c1cc3c(c(=O)n1C2)COC(=O)[C@]3(O)CC [CPT-11, reference compound]
C51; [3]
  LcK (log cell kill): 1.9
  RR CR (complete response): 3/5
  RR PR (partial response): 5/5
  T-C (tumor growth delay): 15.1 days
  TFS (tumor free survivors): 0/5
C51; [4]
  LcK (log cell kill): 1.1
  RR CR (complete response): 0/5
  RR PR (partial response): 0/5
  T-C (tumor growth delay): 8.7 days
  TFS (tumor free survivors): 0/5

## CC(=O)O[C@@]12CO[C@@H]1C[C@H](O)[C@@]1(C)C(=O)[C@H](O)C3=C(C)[C@@H](OC(=O)[C@H](O)[C@@H](NC(=O)OC(C)(C)C)c4ccccc4)C[C@@](O)([C@@H](OC(=O)c4ccccc4)[C@H]21)C3(C)C [Docetaxel, docetaxel, reference compound]
MA13/C; [5]
  LcK (log cell kill): 3.2*
MA13/C; [6]
  RR CR (complete response): 4/6
  RR PR (partial response): 6/6
  T-C (tumor growth delay): 26.7 days
  TFS (tumor free survivors): 3/6
MA13/C; mouse, in vivo, iv
  HNTD Dose (highest nontoxic dose): 68 mg/kg

## COc1cccc2c1C(=O)c1c(O)c3c(c(O)c1C2=O)C[C@@](O)(C(=O)CO)C[C@@H]3O[C@H]1C[C@H](N)[C@H](O)[C@H](C)O1 [Doxorubicin, doxorubicin, reference compound]
MA13/C; [7]
  LcK (log cell kill): 4.5
  RR CR (complete response): 4/6
  RR PR (partial response): 4/6
  T-C (tumor growth delay): 53.5 days
  TFS (tumor free survivors): 0/6
MA13/C; mouse, in vivo, iv
  HNTD Dose (highest nontoxic dose): 17.4 mg/kg

## COc1ccc(/C=C\c2cc(OC)c(OC)c(OC)c2)cc1NC(=O)C(N)CO (centres unmarked) [IIa]
[1]
  Solubility in water: soluble in water

## COc1ccc(/C=C\c2cc(OC)c(OC)c(OC)c2)cc1NC(=O)C(N)CO (centres unmarked) [RPR 258062A]
C51; sequential combination CPT-11 oral (days 13-16) + RPR 258062A i.v. (day 17), dose of each constituent
  HNTD Dose (highest nontoxic dose): 36 mg/kg
C51; [8]
  LcK (log cell kill): 5.9
  RR CR (complete response): 5/5
  RR PR (partial response): 5/5
  T-C (tumor growth delay): 51 days
  TFS (tumor free survivors): 0/5
C51; sequential combination RPR 258062A (day 14) + CDDP (days 15, 19), i.v., dose of each constituent
  HNTD Dose (highest nontoxic dose): 58 mg/kg
C51; [9]
  RR CR (complete response): 6/6
  RR PR (partial response): 6/6
  TFS (tumor free survivors): 6/6
C51; simultaneous combination RPR 258062A 1st (days 12, 16) + CDDP (days 12, 16), i.v., dose of each constituent
  HNTD Dose (highest nontoxic dose): 116 mg/kg
C51; [4]
  LcK (log cell kill): 1.3
  RR CR (complete response): 0/5
  RR PR (partial response): 5/5
  T-C (tumor growth delay): 10.3 days
  TFS (tumor free survivors): 0/5
C51; [2]
  LcK (log cell kill): 1.2
  RR CR (complete response): 0/6
  RR PR (partial response): 6/6
  T-C (tumor growth delay): 10 days
  TFS (tumor free survivors): 0/6
C51; single agent, RPR 258062A i.v. days 13-17 (2x/d), CPT-11 oral days 14-17
  HNTD Dose (highest nontoxic dose): 116.5 mg/kg
C51; single agent, i.v., schedule days 12, 16
  HNTD Dose (highest nontoxic dose): 116 mg/kg
MA13/C; MA13/C tumor, sequential combination RPR 258062A 150 mg/kg days 16, 23 (2x/d) + docetaxel 109.6 mg/kg days 17, 24, i.v.
  RR CR (complete response): 6/6
MA13/C; [10]
  RR CR (complete response): 5/5
  RR PR (partial response): 5/5
  T-C (tumor growth delay): 84.7 days
MA13/C; MA13/C tumor, sequential combination RPR 258062A 1st (day 14) + vinorelbine 2nd (days 15, 25), i.v., dose of each constituent
  HNTD Dose (highest nontoxic dose): 75 mg/kg
MA13/C; MA13/C tumor, sequential combination RPR 258062A (days 15, 21) + doxorubicin (days 16, 22), i.v., dose of each constituent
  HNTD Dose (highest nontoxic dose): 139.6 mg/kg
MA13/C; MA13/C tumor, sequential combination RPR 258062A (days 16, 23, 2x/d) + docetaxel (days 17, 24), i.v., dose of each constituent
  HNTD Dose (highest nontoxic dose): 150 mg/kg
MA13/C; [7]
  LcK (log cell kill): 1.3
  RR CR (complete response): 0/6
  RR PR (partial response): 0/6
  T-C (tumor growth delay): 30.2 days
  TFS (tumor free survivors): 0/6
MA13/C; [11]
  LcK (log cell kill): 0.5
  RR CR (complete response): 0/5
  RR PR (partial response): 0/5
  T-C (tumor growth delay): 5 days
  TFS (tumor free survivors): 0/5
MA13/C; [5]
  LcK (log cell kill): 1.3
MA13/C; [6]
  RR CR (complete response): 1/6
  RR PR (partial response): 1/6
  T-C (tumor growth delay): 10.8 days
  TFS (tumor free survivors): 0/6
MA13/C; MA13/C tumor, single agent, i.v., schedule days 15, 22 (doxorubicin study)
  HNTD Dose (highest nontoxic dose): 186.0 mg/kg
MA13/C; MA13/C tumor, single agent, i.v., schedule days 15, 25 (vinorelbine study)
  HNTD Dose (highest nontoxic dose): 150 mg/kg
MA13/C; MA13/C tumor, single agent, i.v., docetaxel days 17, 24, RPR 258062A days 17, 24 (2x/d)
  HNTD Dose (highest nontoxic dose): 242 mg/kg
MA13/C; mouse, in vivo
  RR CR (complete response): 7/7
  RR PR (partial response): 6/6 and 7/7
  T-C (tumor growth delay): 74.8 days and 80.6 days
  TFS (tumor free survivors): 2/5 and 4/6 and 2/7

## CCC1=C[C@@H]2CN(C1)Cc1c([nH]c3ccccc13)[C@@](C(=O)OC)(c1cc3c(cc1OC)N(C)[C@H]1[C@@](O)(C(=O)OC)[C@H](OC(C)=O)[C@]4(CC)C=CCN5CC[C@]31[C@@H]54)C2 [Vinorelbine, vinorelbine, reference compound]
MA13/C; [11]
  LcK (log cell kill): 4.6
  RR CR (complete response): 5/5
  RR PR (partial response): 5/5
  T-C (tumor growth delay): 45.5 days
  TFS (tumor free survivors): 0/5
MA13/C; mouse, in vivo, iv
  HNTD Dose (highest nontoxic dose): 19.8 mg/kg
